Measured values: patent US20220280492A1, “THERAPEUTIC AGENT FOR CANCER HAVING RESISTANCE TO ANTI-CCR4 ANTIBODY” (DAIICHI SANKYO COMPANY, LIMITED, priority 2019, published 2022)

Columns and labels:
[1] = test system: recurrent or refractory ATL patients; experiment: multicenter open-label phase I trial of the clinical compound in non-Hodgkin's lymphoma patients; ATL patients analyzed; assay type: in vivo, human; parameters: key to Determination of effect on lesion site: Peripheral blood image / Best overall effect / Determination of effect on lesion site: Nodular lesion / Determination of effect on lesion site: Extranodal lesion: CR: Complete Remission; CRu: Uncertified Complete Remission; PR: Partial Remission; SD: Stable Disease; PD: Progressive Disease; NE: Not Evaluable
Protocol: Clinical trials which administer the clinical compound to patients with non-Hodgkin's lymphoma were carried out. ATL patients of the non-Hodgkin's lymphoma patients receiving the clinical compound were analyzed.
The clinical trial is a multicenter open-label phase I trial for the purpose of studying, e.g., safety, tolerability, pharmacokinetics and anti-tumor effect, by administering the clinical compound to patients with recurrent or refractory non-Hodgkin's lymphoma (no standard treatment is established or refractory or intolerant to a standard treatment) including ATL patients. […] In this manner, dose-limiting toxicity and recommended dose for the next phase are determined in the clinical trial.
The clinical compound was orally administered to individual test subjects once a day for consecutive days until unacceptable toxicity or disease progression was confirmed. […] The anti-tumor effect was observed principally, at intervals of 8 weeks, and evaluated based on “Definition, prognostic factors, treatment, and response criteria of adult T-cell leukemia-lymphoma: a proposal from an international consensus meeting” (J Clin Oncol. 2009; 27[3]: 453-9).
The dose of the first cohort was determined to be 150 mg/time/day based on the results of a nonclinical study. The dose of the next cohort was determined by comprehensively evaluating the dose recommended by the modified continual reassessment method (mCRM) based on information of the presence or absence of dose-limited toxicity and all safety data (including adverse event except dose limiting toxicity and abnormal laboratory test values), pharmacokinetics, biomarkers, and effectiveness data obtained up to the time point, and discussing with a sponsors, investigators and external experts.
The dosage amount of the clinical compound was in advance determined per cohort. As the clinical compound, two types of capsules different in dose were provided in combination. As the administration method, oral administration once a day was carried out for consecutive days.
The therapeutic effect on ATL was determined based on “Definition, prognostic factors, treatment, and response criteria of adult T-cell leukemia-lymphoma: a proposal from an international consensus meeting” (J Clin Oncol. 2009; 27[3]: 453-9). Before initiation of the clinical trial, necessary examinations, which were selected from CT scan, bone marrow examination, endoscopic inspection and blood test in accordance with the disease state of the test subject, were carried out to determine a target lesion. A change in the lesion was assessed principally at intervals of 8 weeks.

[2] = test system: ATL patients with a history of treatment with the anti-CCR4 antibody mogamulizumab; conditions: phase II trials; cited from earlier work
[3] = ATL patient No. 1, 150 mg oral once a day, treatment history: mogamulizumab present, lenalidomide present
[4] = ATL patient No. 2, 150 mg oral once a day, treatment history: mogamulizumab present, no lenalidomide
[5] = ATL patient No. 9, 200 mg oral once a day, treatment history: no mogamulizumab, lenalidomide present

| Compound | median value of PFS ([1]; 9 recurrent or refractory ATL patients) [weeks] | Best overall effect [1, 3] | Determination of effect on lesion site: Extranodal lesion [1, 3] | Determination of effect on lesion site: Nodular lesion [1, 3] | Best overall effect [1, 4] | Determination of effect on lesion site: Extranodal lesion [1, 4] | Determination of effect on lesion site: Nodular lesion [1, 4] | Best overall effect [1, 5] | Determination of effect on lesion site: Peripheral blood image [1, 5] | patients evaluated as SD ([1]; of 6 patients with a history of treatment with mogamulizumab) [patients] | responders ([1]; of 6 patients with a history of treatment with mogamulizumab (CRu: 1 patient, PR: 2 patients)) [patients] | response rate ([1]; recurrent or refractory ATL patients evaluable for effectiveness, 4 out of 9 patients [CRu: 1, PR: 3], 95%CI 13.7 to 78.8, intermediate data, oral once a day) [%] | disease control rate (percentage of patients exerting an effect of SD or more) ([1]; recurrent or refractory ATL patients, 7 out of 9 patients, intermediate data) [%] | response rate [2] |
| --- | --- | --- | --- | --- | --- | --- | --- | --- | --- | --- | --- | --- | --- | --- |
| Cc1cc(C)c(CNC(=O)c2cc(Cl)c3c(c2C)O[C@@](C)([C@H]2CC[C@H](N(C)C)CC2)O3)c(=O)[nH]1.Cc1ccc(S(=O)(=O)O)cc1 [clinical compound, (2R)-7-chloro-2-[trans-4-(dimethylamino)cyclohexyl]-N-[(4,6-dimethyl-2-oxo-1,2-dihydropyridin-3-yl)methyl]-2,4-dimethyl-1,3-benzodioxol-5-carboxamide p-toluenesulfonate] | 16.1 | PD | PD | PD | PR | PR | Cru | PR | PR | 2 | 3 | 44.4 | 77.8 |  |
| Nc1cccc2c1CN(C1CCC(=O)NC1=O)C2=O (centres unmarked) [lenalidomide] |  |  |  |  |  |  |  |  |  |  |  |  |  | about 18% |
